Data set [1] has as its system Mus musculus. Nature of the data set: Analgesic activity in Mus musculus Swiss albino (mouse) assessed as protection against acetic acid-induced writhing response at 20 mg/kg, po administered 30 min prior to acetic acid challenge measured at 1 hr relative to control. Format: functional.
For data set [2], the system named is Mus musculus. Nature of the data set: Analgesic activity in Mus musculus Swiss albino (mouse) assessed as protection against acetic acid-induced writhing response at 20 mg/kg, po administered 30 min prior to acetic acid challenge measured at 0.5 hr relative to control. Format: functional. Background: In writhing tests, fewer writhes than in controls are read as antinociception.

In data set [3] the test system is Mus musculus. Nature of the data set: Analgesic activity in Mus musculus Swiss albino (mouse) assessed as protection against acetic acid-induced writhing response at 20 mg/kg, po administered 30 min prior to acetic acid challenge measured at 2 hr relative to control. Format: functional.
In data set [4] the test system is Mus musculus. Nature of the data set: Ulcerogenic activity in Mus musculus Swiss albino (mouse) stomach assessed as decrease in ulcer spots at 60 mg/kg, po after 17 hr by hematoxylin-eosin staining relative to vehicle-treated control. It counts as toxicity, organism-based. Further details: dose 60 mg/kg, route oral. Conditions: in vivo.

Each structure is given as a SMILES string.

Consider 21 compounds from ChEMBL document CHEMBL3046399, “Microwave assisted synthesis of novel pyrimidine derivatives and investigation of their analgesic and ulcerogenic activity” (Med Chem Res, 2012).

For the compound `O=c1oc2ccc(Br)cc2cc1-c1cc(-c2ccc(Cl)cc2Cl)nc(NCN2CCCCC2)n1`, the figures for the Activity in data set [1], in data set [2] and in data set [3] were 69.12%, 83.94% and 38.14%, respectively.

For `O=c1oc2ccc(Br)cc2cc1-c1cc(-c2ccccc2Br)nc(NCN2CCOCC2)n1`, the Activity was determined as 50.27% in data set [1], 59.59% in data set [2] and 47.94% in data set [3].

With `O=c1oc2ccc(Br)cc2cc1-c1cc(-c2ccc(Cl)cc2Cl)nc(NCN2CCOCC2)n1`, the Activity in data set [1] is 85.36%; in data set [2], 95.34%; in data set [4], “Non-toxic”; in data set [3], 69.6%.

For `O=c1oc2ccc(Br)cc2cc1-c1cc(-c2ccccc2Cl)nc(NCN2CCOCC2)n1`, the Activity turned out to be 87.97% in data set [1], 97.93% in data set [2] and 64.43% in data set [3].

`O=c1oc2ccc(Br)cc2cc1-c1cc(-c2cccc(Br)c2)nc(NCN2CCOCC2)n1`: the Activity stood at 45.55% in data set [1], 52.33% in data set [2] and 47.42% in data set [3].

Consider `O=c1oc2ccc(Br)cc2cc1-c1cc(-c2ccc(Br)cc2)nc(NCN2CCOCC2)n1`, for which the Activity came out at 51.3% in data set [1], 61.66% in data set [2] and 46.89% in data set [3].

In the case of `O=c1oc2ccc(Br)cc2cc1-c1cc(-c2cccc(Cl)c2)nc(NCN2CCOCC2)n1`, the Activity in data set [1] is 62.3%; in data set [2], 69.95%; in data set [3], 40.71%.

Regarding `O=c1oc2ccc(Br)cc2cc1-c1cc(-c2cccc(Br)c2)nc(NCN2CCCCC2)n1`, the Activity in data set [1] is 37.7%; in data set [2], 41.97%; in data set [3], 39.16%.

On to `O=c1oc2ccc(Br)cc2cc1-c1cc(-c2c(Cl)cccc2Cl)nc(NCN2CCCCC2)n1`, for which the figures for the Activity in data set [1], in data set [2] and in data set [3] were 18.32%, 26.43% and 15.47%, respectively.

In the case of `O=c1oc2ccc(Br)cc2cc1-c1cc(-c2ccccc2Br)nc(NCN2CCCCC2)n1`, the Activity in data set [1] was found to be 40.31%; in data set [2] it was 55.96%; in data set [3] it was 15.47%.

In the case of `O=c1oc2ccc(Br)cc2cc1-c1cc(-c2c(Cl)cccc2Cl)nc(NCN2CCOCC2)n1`, the results for the Activity in data set [1], in data set [2] and in data set [3] were 87.96%, 95.34% and 75.26%, respectively.

`O=c1oc2ccc(Br)cc2cc1-c1cc(-c2ccc(Cl)cc2)nc(NCN2CCCCC2)n1`: the Activity is on record as 77.47% in data set [1], 83.94% in data set [2] and 61.86% in data set [3].

With `COc1ccccc1-c1cc(-c2cc3cc(Br)ccc3oc2=O)nc(NCN2CCCCC2)n1`, the Activity came out at 65.44% in data set [1], 77.72% in data set [2] and 33.5% in data set [3].

Consider `COc1cccc(-c2cc(-c3cc4cc(Br)ccc4oc3=O)nc(NCN3CCOCC3)n2)c1`, for which the Activity in data set [1] was 53.41%; in data set [2], 60.62%; in data set [3], 47.42%.

`O=c1oc2ccc(Br)cc2cc1-c1cc(-c2cccc(Cl)c2)nc(NCN2CCCCC2)n1`: the Activity in data set [1] turned out to be 83.25%; in data set [2], 81.87%; in data set [3] it was 51.53%.

For the compound `O=c1oc2ccc(Br)cc2cc1-c1cc(-c2ccccc2Cl)nc(NCN2CCCCC2)n1`, the Activity in data set [1] is 84.83%; in data set [2], 89.64%; in data set [3] it was 52.06%.

For the compound `O=C([O-])Cc1ccccc1Nc1c(Cl)cccc1Cl.[Na+]` [DICLOFENAC SODIUM], the Activity in data set [1] was found to be 94.25%; in data set [2] it was 95.87%; in data set [3], 84.53%.

With `COc1ccccc1-c1cc(-c2cc3cc(Br)ccc3oc2=O)nc(NCN2CCOCC2)n1`, the Activity in data set [1] is recorded as 36.13%; in data set [2], 41.97%; in data set [3], 37.61%.

Consider `O=c1oc2ccc(Br)cc2cc1-c1cc(-c2ccc(Cl)cc2)nc(NCN2CCOCC2)n1`, for which the Activity came to 89.54% in data set [1], 98.45% in data set [2] and 55.68% in data set [3].

With `O=c1oc2ccc(Br)cc2cc1-c1cc(-c2ccc(Br)cc2)nc(NCN2CCCCC2)n1`, the values for the Activity in data set [1], in data set [2] and in data set [3] were 41.88%, 49.74% and 32.47%, respectively.

As for `COc1cccc(-c2cc(-c3cc4cc(Br)ccc4oc3=O)nc(NCN3CCCCC3)n2)c1`, the Activity is 63.87% in data set [1], 74.09% in data set [2] and 35.05% in data set [3].
